One block for each compound: values may come before it.
Legend:
[1] = In Vivo Pharmacokinetics Assay in mouse
Procedure: In Vivo Pharmacokinetics Assay
(§1) Full pharmacokinetics study: Male Balb/c mice (n=3, body weights 22-25 g) or male Wistar rats (n=3, body weights 250-300 g) were administered the test compound intravenously via the lateral tail vein or orally via gavage. The formulation was typically a 2.5 mg/mL solution of the compound in 75% PEG300 and 25% D5W. Six blood samples of 50 μL each were collected serially for 24 h after dosing. The blood samples were centrifuged to separate the plasma. Plasma samples were analyzed and quantified by LC-MS/MS.
as §1, with “Rapid” for “Full”, “intravenously (IV)” for “intravenously”, “orally (PO)” for “orally”, “Blood” for “The blood”, “and plasma separated and pooled across” for “to separate”, “three animals at each time point per dose route.” for “plasma.”
For both full and rapid pharmacokinetics studies, the following parameters were calculated by non-compartmental regression analysis using Winnonlin 5.0 software (Pharsight, Mountain View, Calif., USA): plasma clearance (Cl), plasma maximum concentration (Cmax), plasma area-under-the-concentration-time-curve (AUC0-inf), and percent oral bioavailability (F %).

[2] = tested on: SW620 cells; assay: SW620 Cell Viability Assay (Cell Titer Glo); format: cell-based; conditions: 9 serial dilutions between 10 and 0.002 μM, without MEK inhibitor
Procedure: The present invention also includes combinations of the BRaf inhibitors disclosed in this invention with other agents. In particular, the present invention provides for combinations with MEK1/2 inhibitors. FIG. 1 illustrates that the addition of a MEK small molecule inhibitor can reverse the induced ERK signaling, cell growth and transformation caused by a Raf small molecule inhibitor.
SW620 Cell Viability Assay
SW620 cells were seeded in 1640 RPMI+10% FBS at a density of 1500 cells per 96-well in black walled, clear bottom tissue culture treated plates. Test compounds were serially diluted in DMSO then added to the cells (final DMSO concentration of 0.1%) and incubated at 37° C. and 5% CO2 for 4 days. To measure cell viability, cell plates were brought to room temperature, culture media was removed, and 200 μl of Cell Titer-Glo reagent (Promega, kit components mixed as per the manufacturer's protocol then diluted 1:2 with growth media) was added to each well. Plates were shaken for 5 minutes, then incubated at room temperature for 5 minutes, and the luminescence was measured (Trilux, Perkin Elmer).

[3] = Liver Microsomal Clearance Assay, human; format: in vitro ADME
Source text: Liver Microsomal Clearance Assay
The in vitro microsomal clearance assay is designed to assess potential risks associated with hepatic metabolic stability of compounds. […] These values may be scaled to predict hepatic metabolic clearance rate (CLh, mL/min/kg) and extraction ratio (ER, expressed as a ratio of the predicted hepatic metabolic clearance to hepatic blood flow in that species). In general, compounds with high predicted CLint or ER in vitro are considered to be at high risk for exposure-limiting metabolism in vivo.

[4] = tested on: p38α MAP Kinase; assay: A549 p38α MAP Kinase Bright-Glo Reporter Gene Assay; format: cell-based; conditions: ratio of A549 p38 RGA IC50 to A375 CP IC50
Procedure: A549 p38α MAP Kinase Bright-Glo Reporter Gene Assay
A549 cells were stably-transfected with the IL-8 promoter driven reporter, pGL3-IL8-Luc. The cells were plated at 4×10^5/ml into 384-well solid white plates (40 ul/well, 5% CD-FBS, 1×P/S, DMEM) and were incubated overnight (18-20 hours) at 37° C. Test compounds were serially diluted in DMSO, then 50 nl of test solution was added to the incubation (final DMSO concentration of 0.1%). After incubating with test compound for 30 min, cells were stimulated with 1 ng/ml IL-1 beta (10 ul of 5 ng/ml solution per well). Bright-Glo (25 ul/well) was added to measure luciferase expression after 7-8 hours of stimulation.

Compound: CCCS(=O)(=O)Nc1ccc(F)c(-c2nn(C(C)C)cc2-c2ccnc(NC[C@H](C)NC(=O)OC)n2)c1F [Compound 7, Methyl N-[(2S)-1-[(4-{3-[2,6-difluoro-3-(propane-1-sulfonamido)phenyl]-1-(propan-2-yl)-1H-pyrazol-4-yl}pyrimidin-2-yl)amino]propan-2-yl]carbamate]
F ([1]; PO/IV 10/2 mg/kg): 8 ± 7%

Compound: COC(=O)NC[C@H](C)Nc1nccc(-c2cn(C(C)C)nc2-c2cc(Cl)cc(NS(C)(=O)=O)c2F)n1 [Compound 32, Methyl N-[(2S)-2-({4-[3-(5-chloro-2-fluoro-3-methanesulfonamidophenyl)-1-(propan-2-yl)-1H-pyrazol-4-yl]pyrimidin-2-yl}amino)propyl]carbamate]
(p38 RGA)/(A375) ratio [4]: 91

Compound: COC(=O)N[C@@H](C)CNc1nccc(-c2cn(C(C)C)nc2-c2c(F)ccc(NS(C)(=O)=O)c2F)n1 [Compound 6, methyl N-[(2S)-1-({4-[3-(2,6-difluoro-3-methanesulfonamidophenyl)-1-(propan-2-yl)-1H-pyrazol-4-yl]pyrimidin-2-yl}amino)propan-2-yl]carbamate]
F ([1]; PO/IV 10/2 mg/kg): 15 ± 3% | ER (human) [3]: 0.69

Compound: COC(=O)N[C@@H](C)CNc1nccc(-c2cn(C(C)C)nc2-c2cccc(NS(C)(=O)=O)c2F)n1 [Compound 4, methyl N-[(2S)-1-({4-[3-(2-fluoro-3-methanesulfonamidophenyl)-1-(propan-2-yl)-1H-pyrazol-4-yl]pyrimidin-2-yl}amino)propan-2-yl]carbamate]
F ([1]; PO/IV 10/2 mg/kg): 36 ± 6%

Compound: CNc1nccc(-c2cn(C(C)C)nc2-c2cc(Cl)cc(NS(C)(=O)=O)c2F)n1 [Compound 29, N-(5-chloro-2-fluoro-3-{4-[2-(methylamino)pyrimidin-4-yl]-1-(propan-2-yl)-1H-pyrazol-3-yl}phenyl)methanesulfonamide]
(p38 RGA)/(A375) ratio [4]: 220

The next lines start with results.

F ([1]; PO/IV 5/2 mg/kg, n = 1): 6 (n = 1) %
Compound: CCCS(=O)(=O)Nc1cccc(-c2nn(C(C)C)cc2-c2ccnc(NC[C@H](C)NC(=O)OC)n2)c1F [Compound 3, methyl N-[(2S)-1-[(4-{3-[2-fluoro-3-(propane-1-sulfonamido)phenyl]-1-(propan-2-yl)-1H-pyrazol-4-yl}pyrimidin-2-yl)amino]propan-2-yl]carbamate]

F ([1]; PO/IV 10/2 mg/kg): 43 ± 6% | ER (human) [3]: < 0.21
Compound: COC(=O)N[C@@H](C)CNc1nccc(-c2cn(C(C)C)nc2-c2cc(Cl)cc(NS(C)(=O)=O)c2F)n1 [Compound 9, Methyl N-[(2S)-1-({4-[3-(5-chloro-2-fluoro-3-methanesulfonamidophenyl)-1-(propan-2-yl)-1H-pyrazol-4-yl]pyrimidin-2-yl}amino)propan-2-yl]carbamate]
effect on cellular proliferation (negative inhibition in FIG. 1) [2]: induction in cellular proliferation

F ([1]; PO/IV 5/2 mg/kg, n = 1): 46 (n = 1) %
Compound: CCCS(=O)(=O)Nc1cc(Cl)cc(-c2nn(C(C)C)cc2-c2ccnc(NC[C@H](C)NC(=O)OC)n2)c1F [Compound 1, Methyl N-[(2S)-1-[(4-{3-[5-chloro-2-fluoro-3-(propane-1-sulfonamido)phenyl]-1-(propan-2-yl)-1H-pyrazol-4-yl}pyrimidin-2-yl)amino]propan-2-yl]carbamate]

Reference: US9593099B2, “Compounds and compositions as protein kinase inhibitors” (Array BioPharma, Inc., priority 2009, dated 2017)
